From PubChem BioAssay AID248 (DTP/NCI, 2004)
Several values for one entry are separate records, joined by “and”; a condition that tells them apart may be missing. Equal entries are not always repeated. Toxic doses and inconclusive results are not listed. No stated cut-off is given here; in the data, active means T/C of 150% or more; inactive means T/C below 125%.

Test system: L1210 leukemia ip in BDF1 mice, survival T/C
Test: NCI In Vivo Anticancer Drug Screen. Data for tumor model L1210 Leukemia (intraperitoneal) in B6D2F1 (BDF1) mice
Conditions: endpoint: mean survival time, higher = longer survival
Outline: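 Each compound was tested against a transplantable tumor grown in mice. The endpoint was survival, with treated animals benchmarked against vehicle controls as a simple ratio.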

[1] = dose: 100.0 mg/kg/injection, schedule: Q04DX003 (ip), vehicle: Klucel (hydroxypropylcellulose) (HPC)
[2] = dose: 200.0 mg/kg/injection, schedule: Q04DX003 (ip), vehicle: Klucel (hydroxypropylcellulose) (HPC)
[3] = dose: 400.0 mg/kg/injection, schedule: Q04DX003 (ip), vehicle: Klucel (hydroxypropylcellulose) (HPC)
[4] = dose: 100.0 mg/kg/injection, schedule: Q01DX001 (ip), vehicle: saline with Tween-80
[5] = dose: 100.0 mg/kg/injection, schedule: Q04DX003 (ip), vehicle: saline with Tween-80
[6] = dose: 200.0 mg/kg/injection, schedule: Q01DX001 (ip), vehicle: saline with Tween-80
[7] = dose: 200.0 mg/kg/injection, schedule: Q04DX003 (ip), vehicle: saline with Tween-80
[8] = dose: 400.0 mg/kg/injection, schedule: Q01DX001 (ip), vehicle: saline with Tween-80
[9] = dose: 400.0 mg/kg/injection, schedule: Q04DX003 (ip), vehicle: saline with Tween-80
[10] = dose: 100.0 mg/kg/injection, schedule: Q01DX001 (ip), vehicle: carboxymethylcellulose (CMC)
[11] = dose: 200.0 mg/kg/injection, schedule: Q01DX001 (ip), vehicle: carboxymethylcellulose (CMC)
[12] = dose: 400.0 mg/kg/injection, schedule: Q01DX001 (ip), vehicle: carboxymethylcellulose (CMC)
[13] = dose: 50.0 mg/kg/injection, schedule: Q01DX009 (ip), vehicle: saline
[14] = dose: 100.0 mg/kg/injection, schedule: Q01DX009 (ip), vehicle: saline
[15] = dose: 100.0 mg/kg/injection, schedule: Q04DX003 (ip), vehicle: saline
[16] = dose: 200.0 mg/kg/injection, schedule: Q01DX009 (ip), vehicle: saline
[17] = dose: 200.0 mg/kg/injection, schedule: Q04DX003 (ip), vehicle: saline
[18] = dose: 400.0 mg/kg/injection, schedule: Q04DX003 (ip), vehicle: saline
[19] = dose: 100.0 mg/kg/injection, schedule: Q04DX002 (ip), vehicle: saline with Tween-80
[20] = dose: 200.0 mg/kg/injection, schedule: Q04DX002 (ip), vehicle: saline with Tween-80
[21] = dose: 400.0 mg/kg/injection, schedule: Q04DX002 (ip), vehicle: saline with Tween-80
[22] = dose: 100.0 mg/kg/injection, schedule: Q01DX009 (ip), vehicle: Klucel (hydroxypropylcellulose) (HPC)
[23] = dose: 200.0 mg/kg/injection, schedule: Q01DX009 (ip), vehicle: Klucel (hydroxypropylcellulose) (HPC)
[24] = dose: 400.0 mg/kg/injection, schedule: Q01DX009 (ip), vehicle: Klucel (hydroxypropylcellulose) (HPC)

Measured: T/C

Cc1c([N+](=O)[O-])cc(C(C)(C)C)c(OC(=O)C(C)(C)C)c1[N+](=O)[O-]
inactive: dose: 25.0 mg/kg/injection, schedule: Q04DX002 (ip), vehicle: Klucel (hydroxypropylcellulose) (HPC) 95 % of control | dose: 50.0 mg/kg/injection, schedule: Q04DX002 (ip), vehicle: Klucel (hydroxypropylcellulose) (HPC) 100 % of control | dose: 100.0 mg/kg/injection, schedule: Q04DX002 (ip), vehicle: Klucel (hydroxypropylcellulose) (HPC) 92 % of control

COC(=O)c1cccc2cnccc12
inactive: [1] 107 % of control | [2] 110 % of control | [3] 96 % of control

O=C(N/N=C/c1ccccc1)c1ccc(Cl)cc1
inactive: [1] 97 % of control | [2] 100 % of control | [3] 90 % of control

CN(CCC#N)c1ccc(/C=C(\C#N)C(N)=O)cc1
inactive: [4] 102 % of control | [5] 92 % of control and 93 % of control | [6] 102 % of control | [7] 100 % of control and 90 % of control | [8] 89 % of control | [9] 98 % of control and 90 % of control

CCCC/C=C/CCCC
inactive: dose: 75.0 mg/kg/injection, schedule: Q01DX009 (ip), vehicle: saline 100 % of control | dose: 300.0 mg/kg/injection, schedule: Q01DX009 (ip), vehicle: saline 86 % of control

N#CC(c1ccccc1)c1cccnc1 (centres undefined)
inactive: [10] 94 % of control | [11] 92 % of control | [12] 89 % of control

Nc1cc2c(cc1Br)-c1cc(Br)c(N)cc1C2=O
inactive: [10] 98 % of control | [11] 98 % of control | [12] 102 % of control

O=S(=O)(CC1CC2C=CC1C2)c1ccc(Br)cc1 (centres undefined)
inactive: [5] 108 % of control | [7] 101 % of control | [9] 101 % of control

[O-][P+](=NC12CC3CC(CC(C3)C1)C2)c1ccccc1 (centres undefined)
inactive: dose: 75.0 mg/kg/injection, schedule: Q04DX003 (ip), vehicle: Klucel (hydroxypropylcellulose) (HPC) 99 % of control | dose: 150.0 mg/kg/injection, schedule: Q04DX003 (ip), vehicle: Klucel (hydroxypropylcellulose) (HPC) 101 % of control | dose: 300.0 mg/kg/injection, schedule: Q04DX003 (ip), vehicle: Klucel (hydroxypropylcellulose) (HPC) 100 % of control

CC(=O)Nc1ccc2c(O)cc(S(=O)(=O)O)cc2c1
inactive: [13] 95 % of control | [14] 99 % of control | [15] 101 % of control | [16] 100 % of control | [17] 104 % of control | [18] 98 % of control

CCCCSC(C)(SCCCC)SCCCC
inactive: [19] 97 % of control | [20] 101 % of control | [21] 116 % of control

NC(=O)NOCC1NC(=O)C(CONC(N)=O)NC1=O (centres undefined)
inactive: [22] 93 % of control | [1] 104 % of control | [23] 102 % of control | [2] 89 % of control | [24] 96 % of control | [3] 95 % of control

CC(=O)Nc1ccc(S(=O)(=O)OCCC#N)cc1
inactive: [5] 99 % of control | [7] 99 % of control | [9] 90 % of control

Cc1ccc2c(c1)C1(C)C=CC(=O)CC1O2 (centres undefined)
inactive: [19] 106 % of control | [20] 110 % of control | [21] 106 % of control

COc1ccc(C(=O)NS(=O)(=O)c2ccc(Cl)cc2)cc1
inactive: [5] 107 % of control | [7] 91 % of control | [9] 114 % of control

NCCCn1cnc2c(N)ncnc21
inactive: [14] 94 % of control | [15] 91 % of control | [17] 98 % of control

CC(=O)Nc1ccc(NC(=O)Nc2ccc(C)cc2[N+](=O)[O-])cc1
inactive: [1] 92 % of control | [2] 86 % of control | [3] 94 % of control

CCOP(=O)(OCC)C(O)c1cnc(SC)nc1N (centres undefined)
inactive: [14] 104 % of control | [15] 102 % of control | [16] 100 % of control | [17] 100 % of control | dose: 400.0 mg/kg/injection, schedule: Q01DX009 (ip), vehicle: saline 105 % of control | [18] 98 % of control

NC(CCO)C(=O)O (centres undefined)
inactive: dose: 50.0 mg/kg/injection, schedule: Q04DX002 (ip), vehicle: saline 96 % of control | dose: 100.0 mg/kg/injection, schedule: Q04DX002 (ip), vehicle: saline 96 % of control | dose: 200.0 mg/kg/injection, schedule: Q04DX002 (ip), vehicle: saline 100 % of control

NC(=O)N1C(c2ccccc2)C1c1ccccc1 (centres undefined)
inactive: dose: 12.5 mg/kg/injection, schedule: Q01DX009 (ip), vehicle: Klucel (hydroxypropylcellulose) (HPC) 100 % of control | dose: 12.5 mg/kg/injection, schedule: Q04DX003 (ip), vehicle: Klucel (hydroxypropylcellulose) (HPC) 93 % of control | dose: 25.0 mg/kg/injection, schedule: Q01DX009 (ip), vehicle: Klucel (hydroxypropylcellulose) (HPC) 97 % of control | dose: 25.0 mg/kg/injection, schedule: Q04DX003 (ip), vehicle: Klucel (hydroxypropylcellulose) (HPC) 100 % of control | dose: 50.0 mg/kg/injection, schedule: Q01DX009 (ip), vehicle: Klucel (hydroxypropylcellulose) (HPC) 100 % of control | dose: 50.0 mg/kg/injection, schedule: Q04DX003 (ip), vehicle: Klucel (hydroxypropylcellulose) (HPC) 92 % of control

O=C(CCCCCCCCC(=O)N/N=C/c1ccc(O)cc1)N/N=C/c1ccc(O)cc1
inactive: [4] 90 % of control | dose: 100.0 mg/kg/injection, schedule: Q01DX009 (ip), vehicle: saline with Tween-80 89 % of control and 92 % of control | [19] 97 % of control and 100 % of control | [15] 97 % of control | [6] 92 % of control | dose: 200.0 mg/kg/injection, schedule: Q01DX009 (ip), vehicle: saline with Tween-80 100 % of control and 87 % of control | [20] 95 % of control and 97 % of control | [17] 92 % of control | [8] 95 % of control | dose: 400.0 mg/kg/injection, schedule: Q01DX009 (ip), vehicle: saline with Tween-80 101 % of control and 87 % of control | [21] 94 % of control and 92 % of control | [18] 88 % of control

CCN(CCOC(=O)Nc1cccc(C(C)=O)c1)c1ccccc1
inactive: [22] 108 % of control | [23] 104 % of control | [24] 106 % of control

Cc1ccc[nH]c1=O
inactive: [13] 95 % of control | [14] 93 % of control | [15] 107 % of control | [16] 91 % of control | [17] 109 % of control

CCOC(=O)CCC1(CN2c3ccccc3Sc3ccccc32)CCN(C)C1 (centres undefined)
inactive: dose: 100.0 mg/kg/injection, schedule: Q01DX001 (ip), vehicle: saline 87 % of control

CCOC(=O)N1C=Cn2c(cnc2C)C1O (centres undefined)
inactive: [13] 94 % of control | [14] 94 % of control | dose: 100.0 mg/kg/injection, schedule: Q01DX009 (ip), vehicle: water 102 % of control | [15] 102 % of control | [16] 100 % of control and 91 % of control | dose: 200.0 mg/kg/injection, schedule: Q01DX009 (ip), vehicle: water 90 % of control | [17] 109 % of control | dose: 400.0 mg/kg/injection, schedule: Q01DX009 (ip), vehicle: water 93 % of control | [18] 107 % of control
